In patent EP0934249B1, “CONFORMATIONALLY RESTRICTED POLYAMINES AND THEIR USE AS ANTINEOPLASTIC AGENTS” (WISCONSIN ALUMNI RESEARCH FOUNDATION, priority 1996, dated 1998):
Counter-ions that a name gives are not always drawn.

Experiments:
Type in all cases: cell-based
MCF7 [1] = experiment: colony formation (plating efficiency) cell survival assay, standard protocol of Examples 1-8; settings: Homo sapiens; survival of cultured breast cancer cells MCF7; 4 hours drug exposure, colonies counted day 15-20; read-out: ED50 (the source's name)
Protocol: (§1) Human breast cancer cell line MCF7 was grown in Richter's Improved Modified Eagle's Medium supplemented with 10% fetal bovine serum (FBS) and 2.2 g/L sodium bicarbonate. Human brain cancer cell line U251MG-NCI was grown in Dulbecco's Modified Eagle's Medium supplemented with 10% FBS. Human lung cancer cell line A549 was grown in Ham's F-12K medium (Fisher Scientific, Itasca, Illinois), supplemented with 10% FBS and 2 mM L-glutamine. Human colon cancer cell line HT29 was cultured in McCoy's 5A medium (Gibco, BRL, Gaithersburg, Maryland), supplemented with 10% FBS. Human prostate cancer cell line PC3 was grown in Dulbecco's Modified Eagles Medium supplemented with 5% FBS. The A549 and MCF7 cell lines were cultured in 100 units/mL penicillin and 100 µg/mL streptomycin. HT29 and U251MG cell lines were grown in 50 µg/mL gentamycin. PC3 cell lines were maintained in 1% antibiotic-antimycotic solution (Sigma, St. Louis, Missouri). The cell cultures were maintained at 37°C in 5% CO2/95% humidified air. All cell cultures are available from the American Type Culture Collection, Rockville, Maryland.
Ten standard culture flasks for each drug to be tested were plated with 5 x 10^5 cells of a given type in 5 mL of media and allowed to incubate for 16-24 hours at 37°C.
Fresh stocks of the compounds to be evaluated are prepared. For each drug, two of the ten culture flasks prepared on Day 1 are used as controls. The control flasks are treated with solvent only. Four flasks for each compound are then treated with serially-diluted concentrations of the compound. The remaining flasks are left untouched. The cells are incubated for 4 hours at 37°C.
After 4 hours the control flasks are counted (2 counts for each flask) and the cells per mL calculated based on the average of the control counts. The cells are then re-plated into six 60 mm dishes for each flask from dilutions based on the cells/mL of the control. (In the various test runs, cell concentrations ranged from approximately 50 to approximately 800 cells per mL.)
The cells are monitored for colony formation. When visible, the cells are stained with 0.5% crystal violet (in 95% EtOH) and counted. The plating efficiency for each dish is then calculated. The plating efficiencies of the six dishes for each flask are averaged and the standard deviation is calculated. The fraction of cell survival at each concentration is determined based on the controls.

A549 = experiment: MTT assay, percent cell survival; settings: Homo sapiens, A549, 144 h; drug concentration that killed 50% of the cultured cells; MTT six days after drug treatment; read-out: ID50(µM) A549
Protocol: as §1
(§2) Here, a conventional MTT assay was used to evaluate percent cell survival. Exponentially growing monolayer cells were plated in 96-well plates at a density of 500 cells per well and allowed to grow for 24 hours. Serial dilutions of the drugs were added to the wells. Six days after drug treatment, 25 µl of MTT solution (5 mg/ml) was added to each well and incubated for 4 hours at 37°C. Then 100 µl of lysis buffer (20% sodium dodecyl sulfate, 50% DMF, and 0.8% acetic acid, pH 4.7) was added to each well and incubated for an additional 22 hours. A microplate reader ("EMAX"-brand, Molecular Devices, Sunnyvale, California) set at 570 nm was used to determine the optical density of the cultures. Results are expressed as a ratio of the optical density in drug-treated wells to the optical density in wells treated with vehicle only.
(§3) The ID50 is the drug concentration that killed 50% of the cultured cells.

HT-29 = experiment: MTT assay, percent cell survival; settings: Homo sapiens, HT-29, 144 h; drug concentration that killed 50% of the cultured cells; MTT six days after drug treatment; read-out: ID50(µM) HT-29
Protocol: as §1, §2, §3

MCF7 [2] = experiment: MTT assay, percent cell survival; settings: Homo sapiens, MCF7, 144 h; drug concentration that killed 50% of the cultured cells; MTT six days after drug treatment; read-out: ID50(µM) MCF7
Protocol: as §1, §2, §3

PC-3 = experiment: MTT assay, percent cell survival; settings: Homo sapiens, PC-3, 144 h; drug concentration that killed 50% of the cultured cells; MTT six days after drug treatment; read-out: ID50(µM) PC-3
Protocol: as §1, §2, §3

U251MG NCl = experiment: MTT assay, percent cell survival; settings: Homo sapiens, U-251, 144 h; drug concentration that killed 50% of the cultured cells; MTT six days after drug treatment; read-out: ID50(µM) U251MG NCl
Protocol: as §1, §2, §3

Compound CCNCCCNC[C@@H]1C[C@@H]1CNCCCNCC [SL-11037, N-Ethyl-N'-(2-(3'-ethylamino-propylaminomethyl)-cis-cyclopropylmethyl)-propane 1,3-diamine tetrahydrochloride] has an EC50 (MCF7 [1]) of 1640 nM, an IC50 (A549) of 0.12 µM and an IC50 (HT-29) of 1.6 µM. The IC50 (MCF7 [2]) was over 31.2 µM and the IC50 (PC-3) was 7.4 µM.
CCNCCCNCC1CC1CNCCCNCC (stereo not drawn) [SL-11038, N-Ethyl-N'-(2-(3'-ethylamino-propylaminomethyl)-trans-cyclopropylmethyl)-propane-1,3-diamine tetrahydrochloride] was tested, and the EC50 (MCF7 [1]) was 1340 nM, the IC50 (A549) was 0.25 µM and the IC50 (HT-29) was 1.4 µM. For the same compound, the IC50 (MCF7 [2]) was over 31.2 µM and the IC50 (PC-3) was 12.4 µM.
Compound CCNCCCNC[C@H]1CC[C@H]1CNCCCNCC [SL-11043, N-Ethyl-N'-(2-(3'-ethylamino-propylaminomethyl)-cis-cyclobutylmethyl)-propanel,3-diamine tetrahydrochloride] has an EC50 (MCF7 [1]) of 1640 nM, an IC50 (HT-29) of 1.5 µM and an IC50 (MCF7 [2]) of 25.5 µM. The IC50 (PC-3) was over 31.2 µM.
With CCNCCCNCC1CCC1CNCCCNCC (stereo not drawn) [SL-11044, N-Ethyl-N'-(2-(3'-ethylamino-propylaminomethyl)-trans-cyclobutylmethyl)-propane1,3-diaminetetrahydrochloride] the EC50 (MCF7 [1]) was 1790 nM, the IC50 (HT-29) was 1.6 µM and the IC50 (MCF7 [2]) was over 31.2 µM. The IC50 (PC-3) was over 31.2 µM and the IC50 (U251MG NCl) was 0.12 µM.
For CCNCCCNC/C=C\CNCCCNCC [SL-11047, N,N^1-bis(3-ethylaminapropyl)-(Z)-but-2-ene-1,4-diamine tetrahydrochloride], the EC50 (MCF7 [1]) was 1490 nM, the IC50 (A549) was 0.25 µM and the IC50 (HT-29) was 1.6 µM. For the same compound, the IC50 (MCF7 [2]) was 9.5 µM, the IC50 (PC-3) was 3.6 µM and the IC50 (U251MG NCl) was 0.55 µM.
CCNCCCNC/C=C/CNCCCNCC [SL-11048, N,Nl-bis(3-ethylaminopropyl)-(E)-but-2-ene-1,4-diamine tetrahydrochloride, reference compound] gave an EC50 (MCF7 [1]) of 1490 nM, an IC50 (A549) of 0.26 µM and an IC50 (HT-29) of 1.4 µM. For the same compound, the IC50 (MCF7 [2]) was over 31.2 µM, the IC50 (PC-3) was 1.4 µM and the IC50 (U251MG NCl) was 2 µM.
